# Experiments:
# HaCaT keratinocytes = assay: Proliferation of HaCaT keratinocytes (Cell Titer Viability Assay, luminescence); type: cell-based; settings: 48 hours; for inhibition of proliferation of keratinocytes: comparable to negative control
# Description: As further control cells were used, which were only incubated in KBM (KBM).
# For this purpose 5×10^3 HaCaT keratinocytes were seeded into 60 wells of a 96 well-plate in 200 μl KBM/10% FCS each and incubated for 24 hours at 37° C. […] At the end of the second incubation period the medium was removed and the proliferation of cells was determined with the Cell Titer Viability Assay of Promega (#G7571/G7572) according to the manufacturer's instructions. A lowered luminescence with respect to the positive control (in RLU relative luminescence units) correlated with a lowered proliferation. Values obtained from the wells without cells were subtracted from the mean of the 6 wells with cells as background value. At least 4 independent experiments were carried out.
# [1] = administration of up to 100 mg, therapy of lateral sclerosis; cited from earlier work
smiles,measurement,setting,value
"Nc1nc2ccc(OC(F)(F)F)cc2s1 [Riluzole, 2-amino-6-(trifluoromethoxy)-benzothiazole]",inhibition of proliferation of keratinocytes,HaCaT keratinocytes; 100 μmol/l Riluzole,complete inhibition of proliferation
same,inhibition of proliferation of keratinocytes,HaCaT keratinocytes; 250 μmol/l Riluzole,complete inhibition of proliferation
same,concentration at which an inhibition of the proliferation was already observed,"HaCaT keratinocytes; HaCaT keratinocytes, versus control KBM+10% FCS",1 µmol/L
same,adverse effect anestenia,[1],18 % of the treated patients
same,adverse effect nausea,[1],16 % of all treated patients
